# pIC50: −log10 of the molar value. Where a name gives a salt, the structure may show the parent alone.
# Molecular target: T1, HCV polymerase (Hepatitis C virus genotype 1b, UniProt P26663)
# T1 construct: a region encoding NS5B (J Virol 1991 March, 65(3), 1105-13, 544 amino acids after deletion of 47 amino acids on the C-terminal); 6xHis (C); made in house; host or cells: Escherichia coli
# Assay: biochemical
# Parameters: species or system HCV BK strain
# Settings: not given
# Procedure, shortened: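 Recombinant HCV BK-strain NS5B (C-terminal 47 aa deleted, His6-tagged, E. coli), 0.5 μg/ml, run with 5 μg/ml in vitro-transcribed RNA template (polyU/3′X), ATP/GTP/CTP 50 μM, UTP 2 μM plus [3H]UTP, pH 7.5, 25° C, 90 min. TCA-precipitated RNA counted by scintillation; IC50 from activity with vs without compound.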
# T1 sequence (P26663 2420-2963): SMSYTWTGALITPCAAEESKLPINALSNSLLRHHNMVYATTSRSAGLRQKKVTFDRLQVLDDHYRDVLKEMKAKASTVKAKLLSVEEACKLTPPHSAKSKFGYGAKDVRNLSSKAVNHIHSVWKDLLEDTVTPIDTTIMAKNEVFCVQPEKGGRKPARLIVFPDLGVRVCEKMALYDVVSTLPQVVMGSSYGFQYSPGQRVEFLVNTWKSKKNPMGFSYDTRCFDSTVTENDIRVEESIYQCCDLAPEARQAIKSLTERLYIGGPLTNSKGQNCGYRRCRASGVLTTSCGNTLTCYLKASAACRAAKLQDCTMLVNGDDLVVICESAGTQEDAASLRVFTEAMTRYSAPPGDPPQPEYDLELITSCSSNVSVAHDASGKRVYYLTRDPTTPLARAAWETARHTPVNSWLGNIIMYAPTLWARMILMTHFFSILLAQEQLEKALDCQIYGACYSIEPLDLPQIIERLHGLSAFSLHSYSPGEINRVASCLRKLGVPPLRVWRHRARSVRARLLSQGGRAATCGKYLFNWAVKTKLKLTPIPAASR
row,SMILES,pIC50
1,"CC1CCN(C(=O)CN2CCn3c(c(C4CCCCC4)c4ccc(C(=O)O)cc43)-c3ccccc32)CC1 [Example 1-72, 13-cyclohexyl-5-[2-(4-methylpiperidin-1-yl)-2-oxoethyl]-6,7-dihydro-5H-benzo[5,6][1,4]diazepino[7,1-a]indole-10-carboxylic acid monohydrochloride]",> 7.00
2,"CCC1CCN(CCN2CCn3c(c(C4CCCCC4)c4ccc(C(=O)O)cc43)-c3ccccc32)CC1 [Example 1-73, 13-cyclohexyl-5-[2-(4-ethylpiperidin-1-yl)ethyl]-6,7-dihydro-5H-benzo[5,6][1,4]diazepino[7,1-a]indole-10-carboxylic acid dihydrochloride]",> 7.00
3,"COc1ccc2c(c1)N(CCN1CCCCC1)CCn1c-2c(C2CCCCC2)c2ccc(C(=O)O)cc21 [Example 1-74, 13-cyclohexyl-3-methoxy-5-[2-(piperidin-1-yl)ethyl]-6,7-dihydro-5H-benzo[5,6][1,4]diazepino[7,1-a]indole-10-carboxylic acid dihydrochloride]",> 7.00
4,"CC1CCN(CCN2CCn3c(c(C4CCCCC4)c4ccc(C(=O)O)cc43)-c3ccccc32)CC1 [Example 1-75, 13-cyclohexyl-5-[2-(4-methylpiperidin-1-yl)ethyl]-6,7-dihydro-5H-benzo[5,6][1,4]diazepino[7,1-a]indole-10-carboxylic acid dihydrochloride]",> 7.00
5,"CCN1CCN(C(=O)CN2CCn3c(c(C4CCCCC4)c4ccc(C(=O)O)cc43)-c3ccc(Cl)cc32)CC1 [Example 1-76, 3-chloro-13-cyclohexyl-5-[2-(4-ethylpiperazin-1-yl)-2-oxoethyl]-6,7-dihydro-5H-benzo[5,6][1,4]diazepino[7,1-a]indole-10-carboxylic acid dihydrochloride]",> 7.00
6,"O=C(O)c1ccc2c(C3CCCCC3)c3n(c2c1)CCN(CC(=O)N1CCCCC1)c1cc(Cl)ccc1-3 [Example 1-77, 3-chloro-13-cyclohexyl-5-[2-oxo-2-(piperidin-1-yl)ethyl]-6,7-dihydro-5H-benzo[5,6][1,4]diazepino[7,1-a]indole-10-carboxylic acid monohydrochloride]",> 7.00
7,"O=C(O)c1ccc2c(C3CCCCC3)c3n(c2c1)CCN(CC(=O)N1CCCCCC1)c1ccccc1-3 [Example 1-78, 5-[2-(azepan-1-yl)-2-oxoethyl]-13-cyclohexyl-6,7-dihydro-5H-benzo[5,6][1,4]diazepino[7,1-a]indole-10-carboxylic acid monohydrochloride]",> 7.00
8,"O=C(O)c1ccc2c(C3CCCCC3)c3n(c2c1)CCN(CCCCN1CCOCC1)c1ccccc1-3 [Example 1-80, 13-cyclohexyl-5-[4-(morpholin-4-yl)butyl]-6,7-dihydro-5H-benzo[5,6][1,4]diazepino[7,1-a]indole-10-carboxylic acid dihydrochloride]",> 7.00
9,"O=C(O)c1ccc2c(C3CCCCC3)c3n(c2c1)CCN(CC(=O)N1CCN(c2ccccc2)CC1)c1ccccc1-3 [Example 1-81, 13-cyclohexyl-5-[2-oxo-2-(4-phenylpiperazin-1-yl)ethyl]-6,7-dihydro-5H-benzo[5,6][1,4]diazepino[7,1-a]indole-10-carboxylic acid dihydrochloride]",> 7.00
10,"O=C(O)c1ccc2c(C3CCCCC3)c3n(c2c1)CCN(CCN1CCN(c2ccccc2)CC1)c1ccccc1-3 [Example 1-82, 13-cyclohexyl-5-[2-(4-phenylpiperazin-1-yl)ethyl]-6,7-dihydro-5H-benzo[5,6][1,4]diazepino[7,1-a]indole-10-carboxylic acid trihydrochloride]",> 7.00
11,"O=C(O)c1ccc2c(C3CCCCC3)c3n(c2c1)CCN(CCN1CCCCCC1)c1ccccc1-3 [Example 1-83, 5-[2-(azepan-1-yl)ethyl]-13-cyclohexyl-6,7-dihydro-5H-benzo[5,6][1,4]diazepino[7,1-a]indole-10-carboxylic acid dihydrochloride]",> 7.00
12,"CCN1CCN(C(=O)CN2CCn3c(c(C4CCCCC4)c4ccc(C(=O)NC)cc43)-c3ccccc32)CC1 [Example 1-84, 13-cyclohexyl-5-[2-(4-ethylpiperazin-1-yl)-2-oxoethyl]-N-methyl-6,7-dihydro-5H-benzo[5,6][1,4]diazepino[7,1-a]indole-10-carboxamide]",> 7.00
13,"CCN1CCN(C(=O)CN2CCn3c(c(C4CCCCC4)c4ccc(C(=O)NCCO)cc43)-c3ccccc32)CC1 [Example 1-85, 13-cyclohexyl-5-[2-(4-ethylpiperazin-1-yl)-2-oxoethyl]-N-(2-hydroxyethyl)-6,7-dihydro-5H-benzo[5,6][1,4]diazepino[7,1-a]indole-10-carboxamide]",> 7.00
14,"CCN1CCN(C(=O)CN2CCn3c(c(C4CCCCC4)c4ccc(C(=O)NC(C)(C)CO)cc43)-c3ccccc32)CC1 [Example 1-86, 13-cyclohexyl-5-[2-(4-ethylpiperazin-1-yl)-2-oxoethyl]-N-(2-hydroxy-1,1-dimethylethyl)-6,7-dihydro-5H-benzo[5,6][1,4]diazepino[7,1-a]indole-10-carboxamide]",6.00 to 7.00
15,"CN(C)C(=O)N1CCN(CCN2CCn3c(c(C4CCCCC4)c4ccc(C(=O)O)cc43)-c3ccccc32)CC1 [Example 1-87, 13-cyclohexyl-5-[2-(4-dimethylcarbamoylpiperazin-1-yl)ethyl]-6,7-dihydro-5H-benzo[5,6][1,4]diazepino[7,1-a]indole-10-carboxylic acid dihydrochloride]",> 7.00
16,"O=C(O)c1ccc2c(C3CCCCC3)c3n(c2c1)CCN(CCN1CCN(C(=O)c2ccccc2)CC1)c1ccccc1-3 [Example 1-88, 5-[2-(4-benzoylpiperazin-1-yl)ethyl]-13-cyclohexyl-6,7-dihydro-5H-benzo[5,6][1,4]diazepino[7,1-a]indole-10-carboxylic acid dihydrochloride]",> 7.00
17,"CC(C)(C)OC(=O)N1CCC(CCN2CCn3c(c(C4CCCCC4)c4ccc(C(=O)O)cc43)-c3ccccc32)CC1 [Example 1-89, 5-[2-(1-tert-butoxycarbonylpiperidin-4-yl)ethyl]-13-cyclohexyl-6,7-dihydro-5H-benzo[5,6][1,4]diazepino[7,1-a]indole-10-carboxylic acid]",> 7.00
18,"O=C(O)c1ccc2c(C3CCCCC3)c3n(c2c1)CCN(CCN1CCCC1=O)c1ccccc1-3 [Example 1-90, 13-cyclohexyl-5-[2-(2-oxopyrrolidin-1-yl)ethyl]-6,7-dihydro-5H-benzo[5,6][1,4]diazepino[7,1-a]indole-10-carboxylic acid monohydrochloride]",> 7.00
19,"CS(=O)(=O)N1CCN(CCN2CCn3c(c(C4CCCCC4)c4ccc(C(=O)O)cc43)-c3ccccc32)CC1 [Example 1-91, 13-cyclohexyl-5-[2-(4-methanesulfonylpiperazin-1-yl)ethyl]-6,7-dihydro-5H-benzo[5,6][1,4]diazepino[7,1-a]indole-10-carboxylic acid dihydrochloride]",> 7.00
20,"CC(=O)N1CCC(CCN2CCn3c(c(C4CCCCC4)c4ccc(C(=O)O)cc43)-c3ccccc32)CC1 [Example 1-92, 5-[2-(1-acetylpiperidin-4-yl)ethyl]-13-cyclohexyl-6,7-dihydro-5H-benzo[5,6][1,4]diazepino[7,1-a]indole-10-carboxylic acid monohydrochloride]",> 7.00
21,"CCN1CCC(CCN2CCn3c(c(C4CCCCC4)c4ccc(C(=O)O)cc43)-c3ccccc32)CC1 [Example 1-93, 13-cyclohexyl-5-[2-(1-ethylpiperidin-4-yl)ethyl]-6,7-dihydro-5H-benzo[5,6][1,4]diazepino[7,1-a]indole-10-carboxylic acid dihydrochloride]",> 7.00
22,"CS(=O)(=O)N1CCC(CCN2CCn3c(c(C4CCCCC4)c4ccc(C(=O)O)cc43)-c3ccccc32)CC1 [Example 1-94, 13-cyclohexyl-5-[2-(1-methanesulfonylpiperidin-4-yl)ethyl]-6,7-dihydro-5H-benzo[5,6][1,4]diazepino[7,1-a]indole-10-carboxylic acid monohydrochloride]",> 7.00
23,"CC(C)(C)OC(=O)N1CCN(CCN2CCn3c(c(C4CCCCC4)c4ccc(C(=O)O)cc43)-c3ccccc32)CC1 [Example 1-95, 5-[2-(4-tert-butoxycarbonylpiperazin-1-yl)ethyl]-13-cyclohexyl-6,7-dihydro-5H-benzo[5,6][1,4]diazepino[7,1-a]indole-10-carboxylic acid dihydrochloride]",> 7.00
24,"CCN1CCN(C(=O)CN2CCn3c(c(C4CCCCC4)c4ccc(-c5nn[nH]n5)cc43)-c3ccccc32)CC1 [Example 1-96, 2-[13-cyclohexyl-10-(2H-tetrazol-5-yl)-6,7-dihydrobenzo[5,6][1,4]diazepino[7,1-a]indol-5-yl]-1-(4-ethylpiperazin-1-yl)ethanone]",> 7.00
25,"CCOC(=O)N1CCN(CCN2CCn3c(c(C4CCCCC4)c4ccc(C(=O)O)cc43)-c3ccccc32)CC1 [Example 1-97, 13-cyclohexyl-5-[2-(4-ethoxycarbonylpiperazin-1-yl)ethyl]-6,7-dihydro-5H-benzo[5,6][1,4]diazepino[7,1-a]indole-10-carboxylic acid dihydrochloride]",> 7.00
26,"CC(=O)N1CCN(CCN2CCn3c(c(C4CCCCC4)c4ccc(C(=O)O)cc43)-c3ccccc32)CC1 [Example 1-98, 5-[2-(4-acetylpiperazin-1-yl)ethyl]-13-cyclohexyl-6,7-dihydro-5H-benzo[5,6][1,4]diazepino[7,1-a]indole-10-carboxylic acid dihydrochloride]",> 7.00

# Same assay, conditions: 25° C., 90 min; [5,6-3H]UTP incorporation into RNA; read-out: HCV polymerase inhibitory activity IC50
row,SMILES,pIC50
1,"O=C(O)c1ccc2c(C3CCCCC3)c3n(c2c1)CCN(CCN1CCOCC1)c1cc(Cl)ccc1-3 [Example 1-79, 3-chloro-13-cyclohexyl-5-[2-(morpholin-4-yl)ethyl]-6,7-dihydro-5H-benzo[5,6][1,4]diazepino[7,1-a]indole-10-carboxylic acid dihydrochloride]",> 7.00

# From patent US20070049593A1 (priority 2004, published 2007)
